Reference: patent publication US20220170930A1, “METHOD FOR SCREENING COMPOUND FOR TREATING OR PREVENTING POLYQ-RELATED NEURODEGENERATIVE DISEASES” (FUDAN UNIVERSITY, priority 2019, published 2022)

Legend:
in vivo = conditions: mouse, ip, 0.5 mg/kg
Procedure: Experimental method: The compound or control DMSO was diluted with 0.9% NaCl intravenous infusion solution to 0.05 μg/μL. One ip-injection (0.5 mg/kg) was conducted per day. After 14 days of injection, tissue extraction or behavioral experiment were conducted.

[1] = molecular target: T1, mutant ATXN3 protein (ATXN3-Q74) (Homo sapiens, UniProt P54252, G306R/INS305QQQQQQQQQQQQQQQQQQQQQQQQQQQQQQQQQQQQQQQQQQQQQQQQQQQQQQQQQQQQQQQQ/V212M); assay: Western-blot mutant ATXN3 level in SCA3 patient fibroblasts; format: cell-based; conditions: 100 nM (compound 4: 50 nM), 2 days
T1 construct: endogenous in cells; host or cells: SCA3 patient fibroblasts (Q74)
T1 sequence (P54252 with tags, fused parts or gaps isoform P54252-1 with the stated changes): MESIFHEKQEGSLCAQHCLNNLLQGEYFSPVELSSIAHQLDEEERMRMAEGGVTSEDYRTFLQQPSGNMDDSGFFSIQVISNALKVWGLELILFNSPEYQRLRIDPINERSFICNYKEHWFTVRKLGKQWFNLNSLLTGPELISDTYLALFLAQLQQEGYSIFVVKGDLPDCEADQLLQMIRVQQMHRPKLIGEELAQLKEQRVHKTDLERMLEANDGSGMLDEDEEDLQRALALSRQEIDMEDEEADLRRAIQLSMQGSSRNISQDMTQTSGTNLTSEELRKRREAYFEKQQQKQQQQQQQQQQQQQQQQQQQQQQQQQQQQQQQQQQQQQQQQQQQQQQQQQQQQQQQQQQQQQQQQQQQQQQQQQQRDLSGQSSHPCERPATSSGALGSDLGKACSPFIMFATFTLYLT
Procedure: (§1) Then the levels of mutant ATXN3 protein (ATXN3-Q74, SEQ ID NO: 2) and wild-type ATXN3 protein (ATXN3-Q27, SEQ ID NO: 7) were determined by Western-blots (FIG. 26). […] Therefore, the compound of the present invention can be used to treat SCA3.

Q38-GFP = assay: OI-RD affinity reaction parameters with Q38-GFP; format: binding
Excerpt: (§2) (1) PolyQ-GFP cDNA sequence (expressing Met-polyQ-GFP, wherein polyQ was Q72 or Q25) was synthesized de novo and subcloned into pcDNA vector. […] And the same method was used to obtain cells expressing Q53-GFP, cells expressing Q46-GFP, and cells expressing Q38-GFP.

Q25-GFP [2] = assay: MST affinity with Q25-GFP
Procedure: (§3) The affinity of the compound with full-length HTT and LC3B was verified with micro thermophoresis (MST) using Monolith NT.115 instrument from NanoTemper Technologies. The reaction buffer was 20 mM HEPES, pH 7.4, 150 mM NaCl.

MBP-ATXN3-Q28 = molecular target: T2, MBP-ATXN3-Q28 (Homo sapiens, UniProt P54252, INS305QQQQQQQQQQQQQQQQQQ); assay: MST affinity with MBP-ATXN3-Q28; format: binding
T2 construct: His8 with TEV protease cleavage site; made in house; host or cells: Escherichia coli Rosetta(DE3)pLsyS
T2 sequence (P54252 with tags, fused parts or gaps isoform P54252-4 with the stated changes): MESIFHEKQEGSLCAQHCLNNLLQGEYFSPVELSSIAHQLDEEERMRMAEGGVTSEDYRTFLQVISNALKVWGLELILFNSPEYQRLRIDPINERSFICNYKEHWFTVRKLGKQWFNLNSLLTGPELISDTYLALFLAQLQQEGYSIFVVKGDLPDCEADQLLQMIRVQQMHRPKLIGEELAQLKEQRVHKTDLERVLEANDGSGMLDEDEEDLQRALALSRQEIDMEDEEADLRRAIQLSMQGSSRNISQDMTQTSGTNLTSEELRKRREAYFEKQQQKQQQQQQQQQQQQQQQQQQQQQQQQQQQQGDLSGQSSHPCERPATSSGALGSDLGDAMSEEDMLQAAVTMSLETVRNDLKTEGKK
Procedure: Protein concentration was 500 nM.

Q72-GFP = assay: MST affinity with Q72-GFP
Procedure: as §3

[3] = tested on: proteins with expanded polyglutamine (polyQ-GFP); assay: OI-RD affinity screening with polyQ-GFP proteins; format: binding; conditions: OI-RD difference images
Procedure: To identify compound(s) that can selectively bind to proteins containing expanded polyglutamine, screening was conducted using a method similar to 1.1, except for that the target protein HTTexon1-Q72-MBP in step (1) of 1.1 was replaced with the polyQ-GFP protein prepared in 10.1, and the target protein HTTexon1-Q25-MBP in step (2) of 1.1 was replaced with GFP.

Q53-GFP = assay: OI-RD affinity reaction parameters with Q53-GFP; format: binding
Excerpt: as §2

His-ATXN1-Q92 = molecular target: T3, His-ATXN1-Q92 (Homo sapiens, UniProt P54253, INS208QQQQQQQQQQQQQQQQQQQQQQQQQQQQQQQQQQQQQQQQQQQQQQQQQQQQQQQQQQQQQQQQQQQQQQQQQQQQQQQQ); assay: OI-RD affinity screening with His-ATXN1-Q92; format: binding; conditions: OI-RD difference images
T3 construct: made in house; host or cells: HEK293T cells (ATCC, CRL-3216)
T3 sequence (P54253 with tags, fused parts or gaps with the stated changes): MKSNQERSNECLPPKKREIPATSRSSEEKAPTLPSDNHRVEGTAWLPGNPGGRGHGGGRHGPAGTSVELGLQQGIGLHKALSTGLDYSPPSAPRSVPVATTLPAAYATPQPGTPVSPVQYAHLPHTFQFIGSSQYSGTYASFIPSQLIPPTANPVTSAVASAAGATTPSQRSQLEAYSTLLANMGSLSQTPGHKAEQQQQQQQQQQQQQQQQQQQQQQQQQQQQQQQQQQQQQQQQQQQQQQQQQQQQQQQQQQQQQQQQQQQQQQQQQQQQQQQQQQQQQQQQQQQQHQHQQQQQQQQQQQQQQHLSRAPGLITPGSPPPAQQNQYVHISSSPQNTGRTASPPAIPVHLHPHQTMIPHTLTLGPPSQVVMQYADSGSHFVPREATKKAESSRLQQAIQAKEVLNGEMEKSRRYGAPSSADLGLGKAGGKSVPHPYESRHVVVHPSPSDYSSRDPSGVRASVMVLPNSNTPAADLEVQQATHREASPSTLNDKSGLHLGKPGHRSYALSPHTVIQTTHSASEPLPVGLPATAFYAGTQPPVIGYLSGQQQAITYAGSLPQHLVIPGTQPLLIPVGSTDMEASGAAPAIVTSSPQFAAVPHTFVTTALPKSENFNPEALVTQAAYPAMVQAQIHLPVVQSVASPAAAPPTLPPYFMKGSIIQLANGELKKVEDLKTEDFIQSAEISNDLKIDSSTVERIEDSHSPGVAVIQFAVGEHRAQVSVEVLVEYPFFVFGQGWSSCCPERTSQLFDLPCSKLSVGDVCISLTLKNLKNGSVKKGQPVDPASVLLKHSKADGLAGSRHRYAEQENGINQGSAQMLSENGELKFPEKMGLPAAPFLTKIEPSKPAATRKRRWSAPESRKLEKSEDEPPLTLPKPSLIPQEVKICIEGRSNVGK
Procedure: (1) PolyQ-ATXN1 cDNA (where polyQ is Q92) was synthesized de novo and subcloned into pcDNA vector. It transfected into HEK293T cells (ATCC, CRL-3216) to obtain cells expressing His-ATXN1-Q92 (SEQ ID NO: 3 with a His tag at the N-terminal).
(2) The His-ATXN1-Q92 expressed in (1) was purified to obtain ATXN1 with abnormally expanded polyQ.
To identify compound(s) that can bind to ATXN1 with abnormally expanded polyQ, screening was conducted using a method similar to step (1) of 1.1, except for that the target protein HTTexon1-Q72-MBP in step (1) of 1.1 was replaced with His-ATXN1-Q92.

Q25-GFP [4] = assay: OI-RD affinity screening with Q25-GFP; format: binding; conditions: OI-RD difference images
Excerpt: as §2

[5] = molecular target: T4, wild-type ATXN3 protein (ATXN3-Q27) (Homo sapiens, UniProt P54252, G306R/INS305QQQQQQQQQQQQQQQQQ/V212M); assay: Western-blot wild-type ATXN3 level in fibroblasts; format: cell-based; conditions: 100 nM (compound 4: 50 nM), 2 days
T4 construct: endogenous in cells; host or cells: wild-type fibroblasts (Q27) and/or the normal allele in SCA3 patient fibroblasts
T4 sequence (P54252 with tags, fused parts or gaps isoform P54252-1 with the stated changes): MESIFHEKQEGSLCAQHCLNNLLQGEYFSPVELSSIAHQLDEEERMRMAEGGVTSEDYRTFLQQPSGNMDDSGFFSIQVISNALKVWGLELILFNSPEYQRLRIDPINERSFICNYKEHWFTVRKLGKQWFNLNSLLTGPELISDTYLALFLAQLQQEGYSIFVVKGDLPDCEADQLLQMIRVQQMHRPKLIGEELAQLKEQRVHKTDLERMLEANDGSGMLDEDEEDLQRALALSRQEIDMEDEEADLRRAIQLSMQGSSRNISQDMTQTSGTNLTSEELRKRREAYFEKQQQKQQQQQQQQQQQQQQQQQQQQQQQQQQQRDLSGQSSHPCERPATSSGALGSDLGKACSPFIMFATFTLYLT
Procedure: as §1

wtHTT = molecular target: T5, wtHTT (Mus musculus, UniProt P42859); assay: Western-blot wtHTT level in primary cultured cortical neurons; format: cell-based; conditions: Hdh^Q7/Q7 cortical neurons, 2 days
T5 construct: endogenous in cells; host or cells: primary cortical neurons of newborn Hdh Q140/Q7 and Hdh Q7/Q7 mice
Procedure: Primary cultured cortical neurons: The brains of Hdh^Q140/Q7 and Hdh^Q7/Q7 newborn mice (P0) were dissected, digested, dissociated, and cultured.
(1) The primary cultured Hdh^Q140/Q7 and Hdh^Q7/Q7 mouse cortical neuron cells were treated with the compound for 2 days.

LC3B = molecular target: T6, LC3B (Homo sapiens, UniProt Q9GZQ8); assay: OI-RD affinity with LC3B; format: binding
T6 construct: His8 (N, cleaved yes); GST (from pGEX-6P1) (N, cleaved yes); made in house; host or cells: E. coli BL21(DE3)pLsyS
Procedure: 01-RD images before and after incubation with the target protein was obtained following the method in (1).
The difference images of the above steps (1), (2), (3) (the image after incubation minus the image before incubation) was analyzed respectively.
Each compound was printed in triplicates on the microarray. 01-RD was used to measure the affinity reaction parameters of the compound with LC3B, full-length mHTT (flHTT-Q73) and full-length HTT-Q23 (flHTT-Q23).

[6] = molecular target: T7, binding between HTTexon1-Q25-MBP and LC3B (Homo sapiens, UniProt Q9GZQ8); assay: In vitro pull-down HTTexon1-Q25-MBP and LC3B; format: biochemical; conditions: 1 μM compound 1 or 100 nM compound 4
T7 construct: His8 (N, cleaved yes); GST (from pGEX-6P1) (N, cleaved yes); made in house; LC3B: E. coli BL21(DE3)pLsyS
Procedure: Incubation was conducted. Then the unbound proteins were removed.
(3) The resin-bound proteins were eluted and analyzed by SDS-PAGE and Western-blots with anti-LC3 antibody (FIG. 22a).

flHTT-Q73 = molecular target: T8, flHTT-Q73 (Homo sapiens, UniProt P42858, INS38QQQQQQQQQQQQQQQQQQQQQQQQQQQQQQQQQQQQQQQQQQQQQQQQQQQQ); assay: MST affinity with flHTT-Q73; format: binding; conditions: MST, flHTT-Q73, protein 500 nM; read-out: Kd
T8 construct: LC3B, full-length mHTT (flHTT-Q73) and full-length HTT-Q23 (flHTT-Q23); protein A (N, cleaved yes); made in house; host or cells: human embryonic kidney E293 cells

## O=C1Nc2ccc(I)cc2/C1=C/c1cc(Br)c(O)c(Br)c1 [compound 1, GW5074]
In vivo
  concentration at 2 h: 81 ng/g
[1]
  mutant ATXN3 protein level: A decrease in mutant ATXN3 protein level was observed
Q38-GFP
  Kd: 1920 nM
  Koff: 0.0203 min⁻¹
  Kon: 1.06e-05 min/nM
Q25-GFP [2]
  binding affinity to Q25-GFP: no binding affinity
MBP-ATXN3-Q28
  binding affinity with normal ATXN3 protein (MBP-ATXN3-Q28): no binding affinity
Q72-GFP
  Kd: 3000 nM
[3]
  binding affinity to proteins with 38 or more glutamine repeats: showed certain binding affinity
Q53-GFP
  Kd: 25 nM
  Koff: 0.00378 min⁻¹
  Kon: 0.000151 min/nM
His-ATXN1-Q92
  binding to His-ATXN1-Q92: can bind
Q25-GFP [4]
  binding to Q25-GFP: did not bind
[5]
  wild-type ATXN3 protein level: no decrease in wild-type ATXN3 protein level was observed
wtHTT
  wtHTT levels: did not reduce wtHTT levels
LC3B; OI-RD difference images
  binding to LC3B: can bind
LC3B; OI-RD, LC3B
  Koff: 0.0174 min⁻¹
  Kon: 3.72e-05 min/nM
LC3B; OI-RD, LC3B, read-out: Kd
  Kd: 468 nM
[6]
  binding between HTTexon1-Q25-MBP and LC3B: but not between HTTexon1-Q25-MBP and LC3B
flHTT-Q73
  Kd: 3.46 µM
